Article PMC5786306, “An AKAP-Lbc-RhoA interaction inhibitor promotes the translocation of aquaporin-2 to the plasma membrane of renal collecting duct principal cells” (PLoS ONE, 2018)

Columns and labels:
Type in all cases: cell-based, rat
[1] = system: AQP2 localization and F-actin in primary IMCD cells; assay: Immunofluorescence microscopy of AQP2 and F-actin in primary IMCD cells
Excerpt: Primary rat renal inner medullary collecting duct (IMCD) cells were obtained and cultured as previously described. AQP2 was detected with specific rabbit (H27 antibody) and secondary Cy3-coupled antibodies, and F-actin was visualized with Alexa Fluor 647-Phalloidin by laser scanning microscopy (LSM780; Zeiss Jena, Germany) as described.
Fig 8 Scaff10-8 promotes the redistribution of AQP2 to the plasma membrane of primary IMCD cells, which is independent of cAMP elevation and associated with depolymerization of F-actin. (A) Upper panel. IMCD cells were treated with DMSO (1%; control), the solvent of Scaff10-8, or forskolin (10 μM, 30 min) to stimulate cAMP synthesis. Lower panels: The cells were treated for 1 hour with Scaff10-8 (30 μM) alone (control) or with Scaff10-8 and forskolin. Forskolin (10 μM) was added for the final 30 min of Scaff10-8 incubation. AQP2 (green) was detected with specific primary and Cy3-coupled secondary antibodies, F-actin (red) with Alexa Fluor 647-Phalloidin and nuclei with DAPI (blue). Signals were visualized using a laser scanning microscope. Representative images are shown. n = 3. The magnified views were derived from the indicated boxes. (B) The signal intensities arising from intracellular and plasma membrane AQP2 were recorded, related to nuclear signal intensities, and the ratios of plasma membrane to intracellular fluorescence signal intensities were calculated (n = 30 cells per condition). Ratios > 1 indicate a predominant localization of AQP2 at the plasma membrane. Statistically significant differences were calculated using one-way ANOVA with posthoc Bonferroni. Mean ± SEM; *, p ≤ 0.05; *** p ≤ 0.001.

[2] = system: Cdc42 activity in IMCD cells; assay: PAK-1-PBD pull down, Cdc42; details: 30 μM, 1 h
Protocol: (§1) The (p21) binding domain (PBD) of p21 activated kinase 1 protein (PAK-1) spans amino acids 67–150 of PAK-1 and binds specifically to the GTP-bound Rac-1 and Cdc42. The PBD was prepared as described and used for selective precipitation of the activated GTPases from IMCD cells. The PBD was expressed as a GST-fusion protein in DH5α E-coli cells, the cells were lysed using a French press, and the fusion protein was purified with Glutathione Sepharose 4 Fast Flow GST-tagged protein purification resin kit according to the manufacturer’s instructions (GE Healthcare; #17-5132-01). The PAK-1-PBD pull down was carried out with 400–500 μg protein from IMCD cell lysates. Proteins were eluted from the beads by boiling with Laemmli sample buffer, and analyzed by Western blotting. The membranes were first probed for Cdc42, and the GTP-bound active fraction of the protein was related to total Cdc42, and to the loading control GAPDH. The membranes were re-probed for Rac-1 accordingly to determine the active GTP-bound Rac-1 fraction.
(§2) Fig 10 Scaff10-8 inhibits activation of RhoA in primary IMCD cells. IMCD cells were incubated with Scaff10-8 (30 μM, 1 h). DMSO (1%), the solvent of Scaff10-8, served as a control. […] Signals were semiquantitatively analyzed by densitometry. […] Statistically significant differences were determined using one-way ANOVA with posthoc Bonferroni. […]

[3] = system: Rac1 activity in IMCD cells; assay: PAK-1-PBD pull down, Rac1; details: 30 μM, 1 h
Protocol: as §1, §2

## COc1ccc(-c2coc3cc4oc(=O)c(CCC(=O)O)c(C)c4cc23)cc1 [Scaff10-8, 3-[3-(4-Methoxyphenyl)-5-methyl-7-oxo-furo[3,2-g]chromen-6-yl] propanoic acid]
[1]; 30 μM, 1 h plus forskolin
  effect on forskolin-induced redistribution of AQP2: did not enhance the forskolin-induced redistribution
[1]; Scaff10-8 30 μM alone, forskolin alone
  F-actin: F-actin also decreased
[1]; Scaff10-8 30 μM, 1 h, no forskolin, forskolin 10 μM, 30 min
  localization of AQP2: caused the translocation of AQP2 to the plasma membrane
[1]; Scaff10-8 plus forskolin
  effect of forskolin on F-actin: did not influence
[2]
  activity of Cdc42: did not influence activities
[3]
  activity of Rac1: did not influence activities
